ChEMBL document CHEMBL1139570, “Estrogen receptor ligands: design and synthesis of new 2-arylindene-1-ones” (Bioorg Med Chem Lett, 2005)
pIC50: −log10 of the molar value.

Key:
Estrogen receptor = target: T1, Estrogen receptor (Homo sapiens, UniProt P03372)
T1 sequence (P03372 whole entry): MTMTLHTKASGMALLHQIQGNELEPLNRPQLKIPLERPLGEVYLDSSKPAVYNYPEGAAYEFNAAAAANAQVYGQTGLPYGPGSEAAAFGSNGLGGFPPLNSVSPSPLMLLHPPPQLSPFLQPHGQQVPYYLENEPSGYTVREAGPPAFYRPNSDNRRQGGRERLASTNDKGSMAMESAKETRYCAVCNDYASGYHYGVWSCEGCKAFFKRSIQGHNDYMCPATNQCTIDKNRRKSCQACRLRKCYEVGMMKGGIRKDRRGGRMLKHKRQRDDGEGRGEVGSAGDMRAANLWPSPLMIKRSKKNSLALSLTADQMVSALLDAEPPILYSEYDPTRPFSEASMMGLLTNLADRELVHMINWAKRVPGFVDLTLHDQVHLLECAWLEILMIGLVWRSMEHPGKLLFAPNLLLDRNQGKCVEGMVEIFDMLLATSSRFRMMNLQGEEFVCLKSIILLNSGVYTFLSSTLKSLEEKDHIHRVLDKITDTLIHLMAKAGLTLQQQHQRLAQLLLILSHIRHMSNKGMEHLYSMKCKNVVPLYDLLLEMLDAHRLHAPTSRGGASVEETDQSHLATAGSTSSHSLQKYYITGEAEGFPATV
Description: Inhibition of human estrogen receptor alpha

Estrogen receptor beta = Estrogen receptor beta (Homo sapiens, UniProt Q92731)
Chain of Estrogen receptor beta (Q92731 whole entry): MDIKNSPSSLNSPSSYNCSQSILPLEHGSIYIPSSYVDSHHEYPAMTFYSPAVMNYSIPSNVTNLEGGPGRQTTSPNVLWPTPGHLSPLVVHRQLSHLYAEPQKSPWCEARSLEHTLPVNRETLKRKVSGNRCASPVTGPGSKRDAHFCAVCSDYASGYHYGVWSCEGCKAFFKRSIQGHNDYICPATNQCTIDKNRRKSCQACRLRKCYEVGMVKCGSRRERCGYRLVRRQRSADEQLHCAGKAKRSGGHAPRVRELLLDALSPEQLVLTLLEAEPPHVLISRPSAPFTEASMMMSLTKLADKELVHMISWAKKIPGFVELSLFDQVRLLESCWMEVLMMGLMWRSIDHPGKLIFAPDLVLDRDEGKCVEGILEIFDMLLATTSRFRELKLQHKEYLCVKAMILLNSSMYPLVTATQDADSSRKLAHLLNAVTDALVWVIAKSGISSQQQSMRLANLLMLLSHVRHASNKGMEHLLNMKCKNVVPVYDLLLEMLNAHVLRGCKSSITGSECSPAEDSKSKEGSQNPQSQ
Description: Inhibition of human estrogen receptor beta

| pIC50 (Estrogen receptor) | pIC50 (Estrogen receptor beta) | Structure (SMILES) |
| --- | --- | --- |
| < 5.30 | 5.94 | NC1=C(c2ccc(O)cc2)C(=O)c2cc(O)ccc21 |
| 6.24 | 6.82 | CCSC1=C(c2ccc(O)cc2)C(=O)c2cc(O)cc(O)c21 |
| 6.32 |  | CCSC1=C(c2ccc(O)cc2)C(=O)c2ccc(O)cc21 |
| < 5.30 | 5.57 | CC/N=C1/C(c2ccc(O)cc2)=C(O)c2cc(O)cc(O)c21 |
| < 5.30 |  | O=C1C(c2ccc(O)cc2)=C(O)c2cc(O)cc(O)c21 |
| 8.05 | 8.05 | O=C1C(c2ccc(O)cc2)=C(c2ccccc2)c2ccc(O)cc21 |
| 8.51 | 8.89 | CSC1=C(c2ccc(O)cc2)C(=O)c2ccc(O)cc21 |
| 5.74 | 6.70 | COc1ccc2c(c1)C(Br)=C(c1ccc(O)cc1)C2=O |
| 8.28 | 8.77 | O=C1C(c2ccc(O)cc2)=C(Br)c2cc(O)ccc21 |
|  | 8.62 | CC1=C(c2ccc(O)cc2)C(=O)c2c(O)cc(O)cc21 |
| 8.00 | 8.00 | O=C1C(c2ccc(O)cc2)=C(c2ccccc2)c2cc(O)ccc21 |

| Structure (SMILES) | pIC50 (Estrogen receptor) | pIC50 (Estrogen receptor beta) |
| --- | --- | --- |
| O=C1C(c2ccc(O)cc2)=C(O)c2ccc(O)cc21 | < 5.30 |  |
